Test results from PubChem BioAssay AID2060899 (Molecular Pharmacology Branch, DTP, NCI, 2025).

Tested on: 565726-208-R1-J5-PDC complex spheroids, growth inhibition
Test: Anticancer human tumor 565726-208-R1-J5-PDC patient-derived pancreatic adenocarcinoma cell line growth inhibition [RAS]
Conditions: for IC50: curve of first compound; for viability, T/C: stronger effect = lower value
Procedure, shortened: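 Agents were tested in combination matrices in half-log decrements from a top concentration at or near clinical Cmax (10 microM if undetermined). Targets were multi-cell spheroids of tumour lines plus HUVEC and MSC stromal cells.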
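Also: spheroids exposed to compounds for seven days before readout.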
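For viability, T/C in this document: 100% = DMSO vehicle control viability.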

## C=CC(=O)N1CCN(c2nc(OCC3CCCN3C)nc3c(F)c(-c4nc(N)cc(C)c4C(F)(F)F)c(Cl)cc23)C(C)C1 (centres undefined) + CCn1c(-c2cccnc2C(C)OC)c2c3cc(ccc31)N1CCOC(CC(NC(=O)C(C(C)C)N(C)C(=O)C3(F)CCN(C(=O)C#CC(C)(C)N(C)C)CC3)C(=O)N3CCCC(N3)C(=O)OCC(C)(C)C2)C1
Second compound 0.000949 µM
  IC50: > 1000 nM
Second compound 0.003 µM
  IC50: > 1000 nM
Second compound 0.00949 µM
  IC50: > 1000 nM
Second compound 0.03 µM
  IC50: > 1000 nM
Second compound 0.0949 µM
  IC50: > 1000 nM
Second compound 0.3 µM
  IC50: > 1000 nM
Second compound 0.000949 µM, first compound 0.00316 µM
  viability, T/C: 99.3%
Second compound 0.000949 µM, first compound 0.01 µM
  viability, T/C: 98.6%
Second compound 0.000949 µM, first compound 0.0316 µM
  viability, T/C: 108%
Second compound 0.000949 µM, first compound 0.1 µM
  viability, T/C: 111%
Second compound 0.000949 µM, first compound 0.316 µM
  viability, T/C: 97%
Second compound 0.000949 µM, first compound 1 µM
  viability, T/C: 102%
Second compound 0.003 µM, first compound 0.00316 µM
  viability, T/C: 103%
Second compound 0.003 µM, first compound 0.01 µM
  viability, T/C: 109%
Second compound 0.003 µM, first compound 0.0316 µM
  viability, T/C: 105%
Second compound 0.003 µM, first compound 0.1 µM
  viability, T/C: 93.6%
Second compound 0.003 µM, first compound 0.316 µM
  viability, T/C: 96.9%
Second compound 0.003 µM, first compound 1 µM
  viability, T/C: 103%
Second compound 0.00949 µM, first compound 0.00316 µM
  viability, T/C: 106%
Second compound 0.00949 µM, first compound 0.01 µM
  viability, T/C: 112%
Second compound 0.00949 µM, first compound 0.0316 µM
  viability, T/C: 104%
Second compound 0.00949 µM, first compound 0.1 µM
  viability, T/C: 107%
Second compound 0.00949 µM, first compound 0.316 µM
  viability, T/C: 96.8%
Second compound 0.00949 µM, first compound 1 µM
  viability, T/C: 100%
Second compound 0.03 µM, first compound 0.00316 µM
  viability, T/C: 99.3%
Second compound 0.03 µM, first compound 0.01 µM
  viability, T/C: 97.7%
Second compound 0.03 µM, first compound 0.0316 µM
  viability, T/C: 111%
Second compound 0.03 µM, first compound 0.1 µM
  viability, T/C: 98.7%
Second compound 0.03 µM, first compound 0.316 µM
  viability, T/C: 98.6%
Second compound 0.03 µM, first compound 1 µM
  viability, T/C: 104%
Second compound 0.0949 µM, first compound 0.00316 µM
  viability, T/C: 97.1%
Second compound 0.0949 µM, first compound 0.01 µM
  viability, T/C: 109%
Second compound 0.0949 µM, first compound 0.0316 µM
  viability, T/C: 109%
Second compound 0.0949 µM, first compound 0.1 µM
  viability, T/C: 94.8%
Second compound 0.0949 µM, first compound 0.316 µM
  viability, T/C: 100%
Second compound 0.0949 µM, first compound 1 µM
  viability, T/C: 94.5%
Second compound 0.3 µM, first compound 0.00316 µM
  viability, T/C: 93.7%
Second compound 0.3 µM, first compound 0.01 µM
  viability, T/C: 79%
Second compound 0.3 µM, first compound 0.0316 µM
  viability, T/C: 96.7%
Second compound 0.3 µM, first compound 0.1 µM
  viability, T/C: 95.4%
Second compound 0.3 µM, first compound 0.316 µM
  viability, T/C: 90.3%
Second compound 0.3 µM, first compound 1 µM
  viability, T/C: 85.3%

## CC1(C)CCC(Nc2ncc(C(F)(F)F)c(-c3c[nH]c4c(P(C)(C)=O)c(C#N)ccc34)n2)CN1 (centres undefined) + CCn1c(-c2cccnc2C(C)OC)c2c3cc(ccc31)N1CCOC(CC(NC(=O)C(C(C)C)N(C)C(=O)C3(F)CCN(C(=O)C#CC(C)(C)N(C)C)CC3)C(=O)N3CCCC(N3)C(=O)OCC(C)(C)C2)C1
Second compound 0.000949 µM
  IC50: 3.9 nM
Second compound 0.003 µM
  IC50: 4.09 nM
Second compound 0.00949 µM
  IC50: 3.98 nM
Second compound 0.03 µM
  IC50: 3.25 nM
Second compound 0.0949 µM
  IC50: 2.54 nM
Second compound 0.3 µM
  IC50: 1.09 nM
Second compound 0.000949 µM, first compound 0.000949 µM
  viability, T/C: 86%
Second compound 0.000949 µM, first compound 0.003 µM
  viability, T/C: 54%
Second compound 0.000949 µM, first compound 0.00949 µM
  viability, T/C: 37.6%
Second compound 0.000949 µM, first compound 0.03 µM
  viability, T/C: 32.1%
Second compound 0.000949 µM, first compound 0.0949 µM
  viability, T/C: 32.2%
Second compound 0.000949 µM, first compound 0.3 µM
  viability, T/C: 29.5%
Second compound 0.003 µM, first compound 0.000949 µM
  viability, T/C: 89%
Second compound 0.003 µM, first compound 0.003 µM
  viability, T/C: 55%
Second compound 0.003 µM, first compound 0.00949 µM
  viability, T/C: 36.5%
Second compound 0.003 µM, first compound 0.03 µM
  viability, T/C: 29.2%
Second compound 0.003 µM, first compound 0.0949 µM
  viability, T/C: 29.5%
Second compound 0.003 µM, first compound 0.3 µM
  viability, T/C: 28.7%
Second compound 0.00949 µM, first compound 0.000949 µM
  viability, T/C: 83.2%
Second compound 0.00949 µM, first compound 0.003 µM
  viability, T/C: 55.4%
Second compound 0.00949 µM, first compound 0.00949 µM
  viability, T/C: 33.5%
Second compound 0.00949 µM, first compound 0.03 µM
  viability, T/C: 27.9%
Second compound 0.00949 µM, first compound 0.0949 µM
  viability, T/C: 26.9%
Second compound 0.00949 µM, first compound 0.3 µM
  viability, T/C: 27.6%
Second compound 0.03 µM, first compound 0.000949 µM
  viability, T/C: 76%
Second compound 0.03 µM, first compound 0.003 µM
  viability, T/C: 50.9%
Second compound 0.03 µM, first compound 0.00949 µM
  viability, T/C: 36.4%
Second compound 0.03 µM, first compound 0.03 µM
  viability, T/C: 29%
Second compound 0.03 µM, first compound 0.0949 µM
  viability, T/C: 28.6%
Second compound 0.03 µM, first compound 0.3 µM
  viability, T/C: 29.3%
Second compound 0.0949 µM, first compound 0.000949 µM
  viability, T/C: 69.3%
Second compound 0.0949 µM, first compound 0.003 µM
  viability, T/C: 46.7%
Second compound 0.0949 µM, first compound 0.00949 µM
  viability, T/C: 30%
Second compound 0.0949 µM, first compound 0.03 µM
  viability, T/C: 26.9%
Second compound 0.0949 µM, first compound 0.0949 µM
  viability, T/C: 29%
Second compound 0.0949 µM, first compound 0.3 µM
  viability, T/C: 32.9%
Second compound 0.3 µM, first compound 0.000949 µM
  viability, T/C: 52%
Second compound 0.3 µM, first compound 0.003 µM
  viability, T/C: 35.6%
Second compound 0.3 µM, first compound 0.00949 µM
  viability, T/C: 27.4%
Second compound 0.3 µM, first compound 0.03 µM
  viability, T/C: 26.7%
Second compound 0.3 µM, first compound 0.0949 µM
  viability, T/C: 27.8%
Second compound 0.3 µM, first compound 0.3 µM
  viability, T/C: 26.5%
